The supplement of paper PMC10733146

Columns and labels:
Test in all cases: viability relative to DMSO control (fraction); higher = less drug effect (more viable cells)
Conditions in all cases: 48 h
[1] = compound: CN(C)C(=O)c1cc2cnc(Nc3ccc(N4CCNCC4)cn3)nc2n1C1CCCC1 [Ribociclib]
Procedure, shortened: (§1)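 Viability was quantified by CellTiter-Glo luminescence and related to the median of 16 inner DMSO wells. Before that, primary mononuclear tumour cells, fresh or cryopreserved and Ficoll-isolated from blood or bone marrow or prepared from processed lymph node, were plated at 4 × 10^4 cells per well in 384-well plates containing pre-plated compounds at five concentrations, one well each. Plates were incubated in RPMI-1640 with penicillin/streptomycin, L-glutamine and human serum at 37 °C and 5% CO2 for 48 h.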

[2] = compound: C#CCC(Cc1cnc2nc(N)nc(N)c2n1)c1ccc(C(=O)N[C@@H](CCC(=O)O)C(=O)O)cc1 [Pralatrexate]
Procedure, shortened: as §1

[3] = compound: CC[C@H](NC(=O)[C@H](C)NC)C(=O)N1C[C@@H](O)C[C@H]1Cc1c(-c2[nH]c3cc(F)ccc3c2C[C@@H]2C[C@H](O)CN2C(=O)[C@H](CC)NC(=O)[C@H](C)NC)[nH]c2cc(F)ccc12 [Birinapant]
Procedure, shortened: as §1

[4] = compound: O=C(CCCCCCC(=O)Nc1ccccc1)NO [Vorinostat]
Procedure, shortened: as §1

[5] = compound: Cc1cc(Nc2cc(N3CCN(C)CC3)nc(Sc3ccc(NC(=O)C4CC4)cc3)n2)n[nH]1 [Tozasertib]
Procedure, shortened: as §1

[6] = compound: C1=N/C2=N/c3ccc(OCCN4CCCC4)c(c3)COC/C=C/COCc3cccc(c3)C(=C1)N2 [Pacritinib]
Procedure, shortened: as §1

[7] = compound: COC1=CC(c2cc3ccccc3[nH]2)=N/C1=C\c1[nH]c(C)cc1C [Obatoclax mesylate]
Procedure, shortened: as §1

[8] = compound: CC[C@]1(O)C[C@H]2CN(CCc3c([nH]c4ccccc34)[C@@](C(=O)OC)(c3cc4c(cc3OC)N(C=O)[C@H]3[C@@](O)(C(=O)OC)[C@H](OC(C)=O)[C@]5(CC)C=CCN6CC[C@]43[C@@H]65)C2)C1 [Vincristine]
Procedure, shortened: as §1

[9] = compound: Cc1cn(-c2cc(NC(=O)c3ccc(C)c(Nc4nccc(-c5cccnc5)n4)c3)cc(C(F)(F)F)c2)cn1 [Nilotinib]
Procedure, shortened: as §1

[10] = compound: NC(=O)Nc1cc(-c2cccc(F)c2)sc1C(=O)N[C@H]1CCCNC1 [AZD7762]
Procedure, shortened: as §1

[11] = compound: OCc1ccc(-c2ccc(-c3ccc(CO)s3)o2)s1
Procedure, shortened: as §1

[12] = compound: CC(C)C[C@H](NC(=O)[C@H](CCc1ccccc1)NC(=O)CN1CCOCC1)C(=O)N[C@@H](Cc1ccccc1)C(=O)N[C@@H](CC(C)C)C(=O)[C@@]1(C)CO1 [Carfilzomib]
Procedure, shortened: as §1

[13] = compound: CCOc1cc(C(=O)N2CCC(N3CCN(C)CC3)CC2)ccc1Nc1ncc2c(n1)N(C1CCCC1)c1ccccc1C(=O)N2C [ERK5-IN-1]
Procedure, shortened: as §1

[14] = compound: COc1c(Cl)cc2c([nH]c3cnccc32)c1NC(=O)c1cccnc1C [MLN-120B]
Procedure, shortened: as §1

Test System: primary FL patient cells (S087)
- viability ([1]; 0.024 µM): 0.975
- viability ([1]; 0.12 µM): 0.918
- viability ([1]; 0.6 µM): 0.946
- viability ([1]; 3 µM): 0.916
- viability ([1]; 15 µM): 0.743
- viability ([2]; 0.024 µM): 1.01
- viability ([2]; 0.12 µM): 0.975
- viability ([2]; 0.6 µM): 0.985
- viability ([2]; 3 µM): 1.07
- viability ([2]; 15 µM): 0.989
- viability ([3]; 0.0008 µM): 0.895
- viability ([3]; 0.004 µM): 0.918
- viability ([3]; 0.02 µM): 0.927
- viability ([3]; 0.1 µM): 0.907
- viability ([3]; 0.5 µM): 0.892
- viability ([4]; 0.016 µM): 1.02
- viability ([4]; 0.08 µM): 1.01
- viability ([4]; 0.4 µM): 0.936
- viability ([4]; 2 µM): 0.846
- viability ([4]; 10 µM): 0.597
- viability ([5]; 0.024 µM): 0.941
- viability ([5]; 0.12 µM): 0.913
- viability ([5]; 0.6 µM): 0.937
- viability ([5]; 3 µM): 0.842
- viability ([5]; 15 µM): 0.797
- viability ([6]; 0.024 µM): 1.01
- viability ([6]; 0.12 µM): 1.01
- viability ([6]; 0.6 µM): 0.853
- viability ([6]; 3 µM): 0.698
- viability ([6]; 15 µM): 0.0383
- viability ([7]; 0.024 µM): 0.931
- viability ([7]; 0.12 µM): 0.939
- viability ([7]; 0.6 µM): 0.765
- viability ([7]; 3 µM): 0.542
- viability ([7]; 15 µM): 0.269
- viability ([8]; 0.016 µM): 0.817
- viability ([8]; 0.08 µM): 0.781
- viability ([8]; 0.4 µM): 0.739
- viability ([8]; 2 µM): 0.68
- viability ([8]; 10 µM): 0.559
- viability ([9]; 0.016 µM): 0.964
- viability ([9]; 0.08 µM): 1.07
- viability ([9]; 0.4 µM): 1.03
- viability ([9]; 2 µM): 1.05
- viability ([9]; 10 µM): 1.01
- viability ([10]; 0.024 µM): 0.719
- viability ([10]; 0.12 µM): 0.741
- viability ([10]; 0.6 µM): 0.768
- viability ([10]; 3 µM): 0.812
- viability ([10]; 15 µM): 0.772
- viability ([11]; 0.024 µM): 0.941
- viability ([11]; 0.12 µM): 0.913
- viability ([11]; 0.6 µM): 0.927
- viability ([11]; 3 µM): 0.888
- viability ([11]; 15 µM): 0.487
- viability ([12]; 0.00016 µM): 0.849
- viability ([12]; 0.0008 µM): 0.515
- viability ([12]; 0.004 µM): 0.272
- viability ([12]; 0.02 µM): 0.22
- viability ([12]; 0.1 µM): 0.188
- viability ([13]; 0.024 µM): 0.946
- viability ([13]; 0.12 µM): 0.956
- viability ([13]; 0.6 µM): 0.881
- viability ([13]; 3 µM): 0.769
- viability ([13]; 15 µM): 0.368
- viability ([14]; 0.024 µM): 0.95
- viability ([14]; 0.12 µM): 0.954
- viability ([14]; 0.6 µM): 0.96
- viability ([14]; 3 µM): 0.947
- viability ([14]; 15 µM): 0.781

Test System: primary MCL patient cells (S041)
- viability ([1]; 0.024 µM): 0.966
- viability ([1]; 0.12 µM): 0.961
- viability ([1]; 0.6 µM): 0.949
- viability ([1]; 3 µM): 0.844
- viability ([1]; 15 µM): 0.617
- viability ([2]; 0.024 µM): 0.779
- viability ([2]; 0.12 µM): 0.713
- viability ([2]; 0.6 µM): 0.724
- viability ([2]; 3 µM): 0.721
- viability ([2]; 15 µM): 0.733
- viability ([3]; 0.0008 µM): 0.85
- viability ([3]; 0.004 µM): 0.884
- viability ([3]; 0.02 µM): 0.934
- viability ([3]; 0.1 µM): 0.87
- viability ([3]; 0.5 µM): 0.967
- viability ([4]; 0.016 µM): 1.01
- viability ([4]; 0.08 µM): 0.983
- viability ([4]; 0.4 µM): 0.796
- viability ([4]; 2 µM): 0.272
- viability ([4]; 10 µM): 0.152
- viability ([5]; 0.024 µM): 0.991
- viability ([5]; 0.12 µM): 0.91
- viability ([5]; 0.6 µM): 0.912
- viability ([5]; 3 µM): 0.748
- viability ([5]; 15 µM): 0.652
- viability ([6]; 0.024 µM): 1.06
- viability ([6]; 0.12 µM): 1.01
- viability ([6]; 0.6 µM): 0.891
- viability ([6]; 3 µM): 0.135
- viability ([6]; 15 µM): 0.0153
- viability ([7]; 0.024 µM): 1.02
- viability ([7]; 0.12 µM): 0.924
- viability ([7]; 0.6 µM): 0.647
- viability ([7]; 3 µM): 0.428
- viability ([7]; 15 µM): 0.178
- viability ([8]; 0.016 µM): 0.667
- viability ([8]; 0.08 µM): 0.59
- viability ([8]; 0.4 µM): 0.519
- viability ([8]; 2 µM): 0.475
- viability ([8]; 10 µM): 0.355
- viability ([9]; 0.016 µM): 1.12
- viability ([9]; 0.08 µM): 1.14
- viability ([9]; 0.4 µM): 1.09
- viability ([9]; 2 µM): 1.09
- viability ([9]; 10 µM): 1.12
- viability ([10]; 0.024 µM): 0.732
- viability ([10]; 0.12 µM): 0.648
- viability ([10]; 0.6 µM): 0.586
- viability ([10]; 3 µM): 0.383
- viability ([10]; 15 µM): 0.158
- viability ([11]; 0.024 µM): 0.981
- viability ([11]; 0.12 µM): 0.99
- viability ([11]; 0.6 µM): 0.923
- viability ([11]; 3 µM): 0.843
- viability ([11]; 15 µM): 0.581
- viability ([12]; 0.00016 µM): 1.01
- viability ([12]; 0.0008 µM): 0.345
- viability ([12]; 0.004 µM): 0.0174
- viability ([12]; 0.02 µM): 0.0136
- viability ([12]; 0.1 µM): 0.0192
- viability ([13]; 0.024 µM): 1.04
- viability ([13]; 0.12 µM): 0.955
- viability ([13]; 0.6 µM): 0.907
- viability ([13]; 3 µM): 0.771
- viability ([13]; 15 µM): 0.564
- viability ([14]; 0.024 µM): 1.02
- viability ([14]; 0.12 µM): 0.961
- viability ([14]; 0.6 µM): 1.02
- viability ([14]; 3 µM): 0.92
- viability ([14]; 15 µM): 0.924
